In patent US20210255193A1, “LYSINE REACTIVE PROBES AND USES THEREOF” (The Scripps Research Institute, priority 2017, published 2021):

Tests used:
[1] = target: T1, NUDT2 Bis(5-nucleosyl)-tetraphosphatase (Homo sapiens, UniProt P50583); assay: competitive isoTOP-ABPP; type: binding; set-up: key to isoTOP-ABPP reactivity ratio at lysine P50583_K89: R = MS1 peak area ratio, DMSO (heavy) / compound-treated (light); conditions: for isoTOP-ABPP ratio (R) at liganded lysine P50583_K89 / isoTOP-ABPP reactivity ratio at lysine P50583_K89 / R value (DMSO/fragment) for probe 1 labeling: 50 uM, in vitro; for isoTOP-ABPP ratio (R) at liganded lysine P50583_K89: sol, 231; for isoTOP-ABPP reactivity ratio at lysine P50583_K89 / R value (DMSO/fragment) for probe 1 labeling: 231 sol; for R value (DMSO/fragment) for probe 1 labeling: P50583_K89; for isoTOP-ABPP ratio, lysine P50583_K89: possible other lysine P50583_K87
T1 construct: isoTOP-ABPP experiments performed in cell lysates (in vitro); endogenous in cells
T1 sequence (P50583 whole entry, the tested form may be a part): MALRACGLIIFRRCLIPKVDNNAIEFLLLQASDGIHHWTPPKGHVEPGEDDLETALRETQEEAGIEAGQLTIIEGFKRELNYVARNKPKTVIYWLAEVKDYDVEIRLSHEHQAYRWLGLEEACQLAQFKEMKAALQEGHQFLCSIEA
Method: (§1) In vitro covalent fragment treatment for isoTOP-ABPP. All compounds were made up as solutions in DMSO (100×) and were used at a final concentration of 50 μM for activated esters and 100 μM for guanidinylating agents. For each profiling sample, 0.5 ml of lysate was treated with 5 μl of the 100× compound stock solution or 5 μl of DMSO. Samples were treated with activated esters for
(§2) STP-alkyne labeling and click chemistry. For concentration-dependent reactivity measurements by isoTOP-ABPP, 0.5 ml proteome aliquots were treated at ambient temperature with 1 mM STP-alkyne 1 (5 μl of 100 mM stock in DMSO) and 0.1 mM STP alkyne 1 (5 μl of 10 mM stock in DMSO), respectively. For competitive isoTOP-ABPP, after in vitro fragment treatment (detailed above), the samples were labeled for 1 h at ambient temperature with 0.1 mM STP-alkyne 1 (5 μl of 10 mM stock in DMSO). Samples were conjugated by copper-mediated azide-alkyne cycloaddition (CuAAC) to either the light (1 mM STP-alkyne or fragment treated) or heavy (0.1 mM STP-alkyne or DMSO treated) TEV tags (10 μl of 5 mM stocks in DMSO, final concentration=100 μM) using tris(2-carboxyethyl)phosphine hydrochloride
(§3) R value calculation and processing. The ratios of light and heavy MS1 peaks for each unique peptide were quantified with a CIMAGE software using default parameters (3 MS1 acquisitions per peak and signal to noise threshold set to 2.5). For reactivity measurements by isoTOP-ABPP, the R value was calculated from the ratio of MS1 peak areas, comparing the 1 mM STP alkyne sample (light TEV tag) with the 0.1 mM STP alkyne sample (heavy TEV tag). For competitive isoTOP-ABPP, the R value was calculated from the ratio of MS1 peak areas, comparing the DMSO treated sample (heavy TEV tag) with the compound treated sample (light TEV tag). […] Ratios for unique peptide entries are calculated for each experiment; overlapping peptides with the same modified lysine (for example, different charge states, MudPIT chromatographic steps or tryptic termini) are grouped together and the median ratio is reported as the final ratio (R). The peptide ratios reported by CIMAGE were further filtered to ensure the removal or correction of low-quality ratios in each individual data set. The quality filters applied were the following: removal of half tryptic peptides; for ratios with high standard deviations from the median (90% of the median or above) the lowest ratio was taken instead of the median; removal of peptides with R=20 and only a single MS2 event triggered during the elution of the parent ion; manual annotation of all the peptides with ratios of 20, removing any peptides with low quality elution profiles that remained after the previous curation steps (only done for competitive isoTOP-ABPP).
(§4) Cross-data processing for fragment screening. For compound treated samples, biological replicates of the same condition were averaged, if the standard deviation was below 60% of the mean; otherwise, for lysines with at least one R value <4 for a particular compound, the lowest value of the ratio set was taken. For lysines, where all R values for a particular compound were ≥4, the average was reported. For peptides containing several possible modified lysines, the lysine with the highest number of quantification events was used for analysis and the remaining, redundant peptides were reported as alternative modification sites. Peptides included in the aggregate dataset (those used for further bioinformatics and statistical analyses) were required to have been quantified in 2 experiments for competitive isoTOP-ABPP. Lysines were categorized as liganded, if they had at least one ratio R≥4 (hit fragments). For liganded lysines with R=20 for all liganding events, lysines were required to have been quantified with R=20 in two separate experiments and were further required to have been quantified with R<20 in one additional experiment.

[2] = target: T2, PFKP 6-phosphofructokinase type C (Homo sapiens, UniProt Q01813); assay: competitive isoTOP-ABPP; type: binding; set-up: key to isoTOP-ABPP reactivity ratio at lysine Q01813_K688: R = MS1 peak area ratio, DMSO (heavy) / compound-treated (light); conditions: for isoTOP-ABPP ratio (R) at liganded lysine Q01813_K688 / isoTOP-ABPP reactivity ratio at lysine Q01813_K688 / R value (DMSO/fragment) for probe 1 labeling: 50 uM, in vitro; for isoTOP-ABPP ratio (R) at liganded lysine Q01813_K688: sol, 231; for isoTOP-ABPP reactivity ratio at lysine Q01813_K688 / R value (DMSO/fragment) for probe 1 labeling: 231 sol; for R value (DMSO/fragment) for probe 1 labeling: Q01813_K688
T2 construct: isoTOP-ABPP experiments performed in cell lysates (in vitro); endogenous in cells
T2 sequence (Q01813 1-784): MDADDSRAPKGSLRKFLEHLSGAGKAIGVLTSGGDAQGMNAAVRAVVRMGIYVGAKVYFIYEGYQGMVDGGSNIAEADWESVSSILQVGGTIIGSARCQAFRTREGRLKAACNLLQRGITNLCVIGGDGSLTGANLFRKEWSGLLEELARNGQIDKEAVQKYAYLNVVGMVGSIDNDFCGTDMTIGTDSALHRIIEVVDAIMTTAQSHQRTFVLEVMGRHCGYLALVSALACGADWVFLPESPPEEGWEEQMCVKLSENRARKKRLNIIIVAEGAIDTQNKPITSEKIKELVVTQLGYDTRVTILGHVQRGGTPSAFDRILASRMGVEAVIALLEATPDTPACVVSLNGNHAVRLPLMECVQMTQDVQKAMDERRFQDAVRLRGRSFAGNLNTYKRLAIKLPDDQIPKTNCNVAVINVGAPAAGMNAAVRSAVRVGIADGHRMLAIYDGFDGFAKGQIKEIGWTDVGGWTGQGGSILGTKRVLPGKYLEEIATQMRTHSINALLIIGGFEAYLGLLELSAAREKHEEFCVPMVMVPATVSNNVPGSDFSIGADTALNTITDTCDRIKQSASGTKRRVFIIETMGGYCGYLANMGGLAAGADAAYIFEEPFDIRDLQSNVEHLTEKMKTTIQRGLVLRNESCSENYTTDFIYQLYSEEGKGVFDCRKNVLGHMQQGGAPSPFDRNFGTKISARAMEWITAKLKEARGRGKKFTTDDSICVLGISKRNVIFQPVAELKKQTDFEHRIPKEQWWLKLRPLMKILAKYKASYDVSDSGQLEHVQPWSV
Method: as §1, §2, §3, §4

Compound: O=C(CCc1coc2cc(F)ccc2c1=O)Oc1ccc([N+](=O)[O-])cc1[N+](=O)[O-] [fragment 36, 2,4-Dinitrophenyl 3-(7-fluoro-4-oxo-4H-chromen-3-yl)propanoate]
- isoTOP-ABPP ratio (R) at liganded lysine P50583_K89 [1]: 0.9
- isoTOP-ABPP ratio (R) at liganded lysine Q01813_K688 [2]: 20.0

Compound: O=C(Oc1ccc([N+](=O)[O-])cc1[N+](=O)[O-])C(c1ccccc1)(c1ccccc1)c1ccccc1 [fragment 42, 2,4-Dinitrophenyl 2,2,2-triphenylacetate]
- isoTOP-ABPP ratio (R) at liganded lysine P50583_K89 [1]: 1.0
- isoTOP-ABPP ratio (R) at liganded lysine Q01813_K688 [2]: 1.0

Compound: O=C(CCc1coc2cc(F)ccc2c1=O)Oc1c(F)c(F)c(F)c(F)c1F [fragment 26, Pentafluorophenyl 3-(7-fluoro-4-oxo-4H-chromen-3-yl)propanoate]
- isoTOP-ABPP reactivity ratio at lysine P50583_K89 [1]: 0.9
- isoTOP-ABPP reactivity ratio at lysine Q01813_K688 [2]: 6.4

Compound: O=C(Oc1ccc([N+](=O)[O-])cc1[N+](=O)[O-])c1ccccc1Nc1cccc(C(F)(F)F)c1 [fragment 40, 2,4-Dinitrophenyl 2-((3-(trifluoromethyl)phenyl)amino)benzoate]
- isoTOP-ABPP ratio (R) at liganded lysine P50583_K89 [1]: 0.9
- isoTOP-ABPP ratio (R) at liganded lysine Q01813_K688 [2]: 1.0

Compound: O=C(Oc1ccc([N+](=O)[O-])cc1[N+](=O)[O-])C1CCN(C(=O)OCc2ccccc2)CC1 [fragment 34, 1-Benzyl 4-(2,4-dinitrophenyl) piperidine-1,4-dicarboxylate]
- isoTOP-ABPP ratio (R) at liganded lysine P50583_K89 [1]: 1.0
- isoTOP-ABPP ratio (R) at liganded lysine Q01813_K688 [2]: 1.9

Compound: Cn1cc(CC(=O)Oc2c(F)c(F)c(F)c(F)c2F)c2ccccc21 [fragment 22, Pentafluorophenyl 2-(1-methyl-1H-indol-3-yl)acetate]
- R value (DMSO/fragment) for probe 1 labeling [1]: 0.9
- R value (DMSO/fragment) for probe 1 labeling [2]: 2.0

Compound: O=C(Oc1c(F)c(F)c(C(F)(F)F)c(F)c1F)c1cc(C(F)(F)F)cc(C(F)(F)F)c1 [fragment 47, 2,3,5,6-Tetrafluoro-4-(trifluoromethyl)phenyl 3,5-bis(trifluoromethyl)benzoate]
- isoTOP-ABPP ratio, lysine P50583_K89 ([1]; 50 uM_231_sol_in vitro): 1.0
- isoTOP-ABPP ratio, lysine Q01813_K688 ([2]; 50 uM_231_sol_in vitro): 1.0

Compound: O=C(CC12CC3CC(CC(C3)C1)C2)Oc1ccc([N+](=O)[O-])cc1[N+](=O)[O-] [fragment 38, 2,4-Dinitrophenyl 2-(adamantan-1-yl)acetate]
- isoTOP-ABPP ratio (R) at liganded lysine P50583_K89 [1]: 0.9
- isoTOP-ABPP ratio (R) at liganded lysine Q01813_K688 [2]: 4.1

Compound: O=C(ON1C(=O)CCC1=O)c1cc(C(F)(F)F)cc(C(F)(F)F)c1 [fragment 46, 3,5-Bis(trifluoromethyl)benzoic acid NHS ester]
- isoTOP-ABPP ratio, lysine P50583_K89 ([1]; 50 uM_231_sol_in vitro): 1.1
- isoTOP-ABPP ratio, lysine Q01813_K688 ([2]; 50 uM_231_sol_in vitro): 1.7

Compound: NC(=O)c1cc(C(F)(F)F)cc(C(F)(F)F)c1 [fragment 51, reference compound]
- isoTOP-ABPP ratio, lysine P50583_K89 ([1]; 50 uM_231_sol_in vitro): 0.9
- isoTOP-ABPP ratio, lysine Q01813_K688 ([2]; 50 uM_231_sol_in vitro): 0.9

Compound: O=C(CN1C(=O)c2ccccc2C1=O)Oc1c(F)c(F)c(F)c(F)c1F [fragment 27, Pentafluorophenyl 2-(1,3-dioxoisoindolin-2-yl)acetate]
- isoTOP-ABPP reactivity ratio at lysine P50583_K89 [1]: 0.7
- isoTOP-ABPP reactivity ratio at lysine Q01813_K688 [2]: 20.0

Compound: O=C(CCc1cn(-c2ccccc2)nc1-c1ccccc1)Oc1c(F)c(F)c(F)c(F)c1F [fragment 19, Pentafluorophenyl 3-(1,3-diphenyl-1H-pyrazol-4-yl)propanoate]
- R value (DMSO/fragment) for probe 1 labeling [1]: 1.0
- R value (DMSO/fragment) for probe 1 labeling [2]: 1.5

Compound: COc1cc(CCC(=O)Oc2ccc([N+](=O)[O-])cc2[N+](=O)[O-])cc(OC)c1OC [fragment 33, 2,4-Dinitrophenyl 3-(3,4,5-trimethoxyphenyl)propanoate]
- isoTOP-ABPP reactivity ratio at lysine P50583_K89 [1]: 1.9
- isoTOP-ABPP reactivity ratio at lysine Q01813_K688 [2]: 20.0

Compound: O=C(Oc1ccc([N+](=O)[O-])cc1[N+](=O)[O-])C(c1ccccc1)c1ccccc1 [fragment 30, 2,4-Dinitrophenyl 2,2-diphenylacetate]
- isoTOP-ABPP reactivity ratio at lysine P50583_K89 [1]: 1.1
- isoTOP-ABPP reactivity ratio at lysine Q01813_K688 [2]: 20.0

Compound: O=C(Oc1ccc([N+](=O)[O-])cc1[N+](=O)[O-])c1cc(C(F)(F)F)cc(C(F)(F)F)c1 [fragment 31, 2,4-Dinitrophenyl 3,5-bis(trifluoromethyl)benzoate]
- isoTOP-ABPP reactivity ratio at lysine P50583_K89 [1]: 0.8
- isoTOP-ABPP reactivity ratio at lysine Q01813_K688 [2]: 2.3

Compound: O=C(CCc1cn(-c2ccccc2)nc1-c1ccccc1)Oc1ccc([N+](=O)[O-])cc1[N+](=O)[O-] [fragment 29, 2,4-Dinitrophenyl 3-(1,3-diphenyl-1H-pyrazol-4-yl)propanoate]
- isoTOP-ABPP reactivity ratio at lysine P50583_K89 [1]: 1.0
- isoTOP-ABPP reactivity ratio at lysine Q01813_K688 [2]: 12.8

Compound: CC(=O)Oc1ccc([N+](=O)[O-])cc1[N+](=O)[O-] [fragment 43, 2,4-Dinitrophenyl acetate]
- isoTOP-ABPP ratio (R) at liganded lysine P50583_K89 [1]: 1.1
- isoTOP-ABPP ratio (R) at liganded lysine Q01813_K688 [2]: 3.9

Compound: O=C(Oc1c(F)c(F)cc(F)c1F)c1cc(C(F)(F)F)cc(C(F)(F)F)c1 [fragment 48, 2,3,5,6-Tetrafluorophenyl 3,5-bis(trifluoromethyl)benzoate]
- isoTOP-ABPP ratio, lysine P50583_K89 ([1]; 50 uM_231_sol_in vitro): 1.0
- isoTOP-ABPP ratio, lysine Q01813_K688 ([2]; 50 uM_231_sol_in vitro): 1.4

Compound: CC(C)(C)OC(=O)N=C(NC(=O)OC(C)(C)C)n1cccn1 [fragment 50, reference compound]
- isoTOP-ABPP ratio, lysine P50583_K89 ([1]; 100 uM_231_sol_in vitro): 20.0
- reaction with K89 by isoTOP-ABPP ([1]; NUDT2 K89): preferentially reacting
- isoTOP-ABPP ratio, lysine Q01813_K688 ([2]; 100 uM_231_sol_in vitro): 18.2

Compound: N#Cc1ccc(C(=O)Oc2ccc([N+](=O)[O-])cc2[N+](=O)[O-])cc1 [fragment 44, 2,4-Dinitrophenyl 4-cyanobenzoate]
- isoTOP-ABPP ratio, lysine P50583_K89 ([1]; 50 uM_231_sol_in vitro): 0.9
- isoTOP-ABPP ratio, lysine Q01813_K688 ([2]; 50 uM_231_sol_in vitro): 4.2

Compound: O=C(Oc1ccc([N+](=O)[O-])cc1[N+](=O)[O-])c1ccc(-c2ccccc2)cc1 [fragment 37, 2,4-Dinitrophenyl [1,1′-biphenyl]-4-carboxylate]
- isoTOP-ABPP ratio (R) at liganded lysine P50583_K89 [1]: 1.4
- isoTOP-ABPP ratio (R) at liganded lysine Q01813_K688 [2]: 1.0

Compound: O=C(CCc1ccc2c(c1)OCO2)Oc1ccc([N+](=O)[O-])cc1[N+](=O)[O-] [fragment 45, 2,4-Dinitrophenyl 3-(benzo[d][1,3]dioxol-5-yl)propanoate]
- isoTOP-ABPP ratio, lysine P50583_K89 ([1]; 50 uM_231_sol_in vitro): 1.7
- isoTOP-ABPP ratio, lysine Q01813_K688 ([2]; 50 uM_231_sol_in vitro): 20.0
